Results from patent US20100093538A1, “Pseudomonas Bacterium” (priority 2008, published 2010).

How the values were obtained:
[1] = system: R. solani; type: cell-based; settings: bioautography, Si gel scraped into agar plates inoculated with R. solani
[2] = system: germinating lettuce seeds; experiment: Lettuce seed bioassay of EtOAC extracts of cell-free culture filtrates; settings: IAA at 1 μg/ml

Compound | Fungal inhibition [1] | Effect on germination of lettuce seeds [2]
CC(=O)c1c(O)cc(O)c(C(C)=O)c1O [DAPG, 2,4-diacetylphloroglucinol] | Rhizoctonia | 
O=C(O)Cc1c[nH]c2ccccc12 [IAA, indole-3-acetic acid] |  | inhibits the germination of lettuce seeds
O=[N+]([O-])c1c(Cl)cccc1-c1c[nH]cc1Cl [PRN, 3-chloro-4-[2′ nitro-3′-chlorophenyl]pyrrole] | Rhizoctonia | 
